Measured values from patent US9540405B2, “Diaminophenothiazinium derivatives for labelling biomolecules, method and substrate for labelling oligonucleotides, and oligonucleotides obtained” (UNIVERSITE CLAUDE BERNARD LYON I, priority 2012, dated 2017).

Assay: Stability study in basic medium (0.05M K2CO3 in methanol)
Type: physicochemical

| SMILES | Stability after treatment in 0.05M K2CO3/MeOH (4 h) [%] | Stability after treatment in 0.05M K2CO3/MeOH (17 h) [%] |
| --- | --- | --- |
| CCCCN(CCCCO)c1ccc2nc3ccc(N(CCCC)CCCCO)cc3[s+]c2c1.[I-] [Ra═Rc═butyl and Rb═Rd═butanol, bis(butylbutanolamino)phenothiazinium iodide] | 91 | 66 |
| CCCCN(CCCC)c1ccc2nc3ccc(N(CCO)CCO)cc3[s+]c2c1.[I-] [Ra═Rb═butyl and Rc═Rd═ethanol, (dibutylamino)(diethanolamino)phenothiazinium iodide] | 73 | 25 |
